According to patent publication US7772241B2, “Variolin derivatives and their use as antitumor agents” (Pharma Mar S.A., priority 2001, dated 2010):
Where two headings read alike, the source gives them in different places.

What was measured:
[1] = tested on: SK-BR-3; experiment: Inhibition of cells growth by colorimetric (SRB) assay, SK-BR-3; conditions: for GI50 / CC50: Homo sapiens, SK-BR-3, 48 h; for GI50: read-out: SK-BR-3 GI50, SRB assay, 48 hours exposure; for CC50: read-out: SK-BR-3 LC50, SRB assay, 48 hours exposure; for SK-BR-3 TGI: SRB assay, 48 hours exposure
Outline: (§1)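 Read-out is sulforhodamine B protein stain (OD 490 nm) after cold TCA fixation, following 48 h continuous exposure to samples spanning 10 to 10^−8 μg/ml.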

[2] = tested on: LoVo; experiment: Inhibition of cells growth by colorimetric (SRB) assay, LoVo; conditions: for CC50: read-out: LOVO LC50, SRB assay, 48 hours exposure
Outline: as §1

[3] = tested on: IGROV-ET; experiment: Inhibition of cells growth by colorimetric (SRB) assay, IGROV-ET; conditions: for CC50: read-out: IGROV-ET LC50, SRB assay, 48 hours exposure
Outline: as §1

[4] = tested on: LoVo-Dox; experiment: Inhibition of cells growth by colorimetric (SRB) assay, LoVo-Dox; conditions: for CC50: read-out: LOVO-DOX LC50, SRB assay, 48 hours exposure
Outline: as §1

[5] = tested on: A-549; experiment: Inhibition of cells growth by colorimetric (SRB) assay, A-549; conditions: for CC50: read-out: A-549 LC50, SRB assay, 48 hours exposure
Outline: as §1

[6] = tested on: K-562; experiment: Inhibition of cells growth by colorimetric (SRB) assay, K-562; conditions: for CC50: read-out: K-562 LC50, SRB assay, 48 hours exposure
Outline: as §1

[7] = tested on: LNCaP; experiment: Inhibition of cells growth by colorimetric (SRB) assay, LNCaP
Outline: as §1

[8] = tested on: SK-MEL-28; experiment: Inhibition of cells growth by colorimetric (SRB) assay, SK-MEL-28; conditions: for CC50: read-out: MEL-28 LC50, SRB assay, 48 hours exposure
Outline: as §1

[9] = tested on: DU-145; experiment: Inhibition of cells growth by colorimetric (SRB) assay, DU-145
Outline: as §1

[10] = tested on: HeLa; experiment: Inhibition of cells growth by colorimetric (SRB) assay, HeLa; on HELA TGI: unit not given here
Outline: as §1

[11] = tested on: PANC-1; experiment: Inhibition of cells growth by colorimetric (SRB) assay, PANC-1; conditions: for CC50: read-out: PANC-1 LC50, SRB assay, 48 hours exposure
Outline: as §1

[12] = tested on: IGROV-1; experiment: Inhibition of cells growth by colorimetric (SRB) assay, IGROV-1; conditions: for CC50: read-out: IGROV LC50, SRB assay, 48 hours exposure
Outline: as §1

[13] = tested on: HT-29; experiment: Inhibition of cells growth by colorimetric (SRB) assay, HT-29; conditions: for CC50: read-out: HT-29 LC50, SRB assay, 48 hours exposure
Outline: as §1

[14] = tested on: HeLa-APL; experiment: Inhibition of cells growth by colorimetric (SRB) assay, HeLa-APL
Outline: as §1

SMILES: CSc1nccc(-c2c3c(N)ccnc3n3c(N)nccc23)n1.Cl [Compound 93]
- GI50 [1]: 326 nM
- CC50 [1]: 15600 nM
- SK-BR-3 TGI [1]: 1.59E−06
- GI50 ([2]; Homo sapiens, LoVo, 48 h, read-out: LOVO GI50, SRB assay, 48 hours exposure): 984 nM
- CC50 ([2]; Homo sapiens, LoVo, 48 h): 17400 nM
- LOVO TGI ([2]; SRB assay, 48 hours exposure): 3.84E−06
- GI50 ([3]; Homo sapiens, 48 h, read-out: IGROV-ET GI50, SRB assay, 48 hours exposure): 860 nM
- CC50 ([3]; Homo sapiens, 48 h): 2520 nM
- IGROV-ET TGI ([3]; SRB assay, 48 hours exposure): 2.09E−06
- GI50 ([4]; Homo sapiens, 48 h, read-out: LOVO-DOX GI50, SRB assay, 48 hours exposure): 699 nM
- CC50 ([4]; Homo sapiens, 48 h): 25200 nM
- LOVO-DOX TGI ([4]; SRB assay, 48 hours exposure): 1.68E−06
- GI50 ([5]; Homo sapiens, A549, 48 h, read-out: A-549 GI50, SRB assay, 48 hours exposure): 249 nM
- CC50 ([5]; Homo sapiens, A549, 48 h): 5980 nM
- A-549 TGI ([5]; SRB assay, 48 hours exposure): 9.34E−07
- GI50 ([6]; Homo sapiens, K562, 48 h, read-out: K-562 GI50, SRB assay, 48 hours exposure): 898 nM
- CC50 ([6]; Homo sapiens, K562, 48 h): 25200 nM
- K-562 TGI ([6]; SRB assay, 48 hours exposure): 1.57E−06
- GI50 ([7]; Homo sapiens, LNCaP, 48 h, read-out: LN-caP GI50, SRB assay, 48 hours exposure): 127 nM
- CC50 ([7]; Homo sapiens, LNCaP, 48 h, read-out: LN-caP LC50, SRB assay, 48 hours exposure): 1670 nM
- LN-caP TGI ([7]; SRB assay, 48 hours exposure): 3.68E−07
- GI50 ([8]; Homo sapiens, SK-MEL-28, 48 h, read-out: MEL-28 GI50, SRB assay, 48 hours exposure): 767 nM
- CC50 ([8]; Homo sapiens, SK-MEL-28, 48 h): 10700 nM
- MEL-28 TGI ([8]; SRB assay, 48 hours exposure): 3.71E−06
- GI50 ([9]; Homo sapiens, DU-145, 48 h, read-out: DU-145 GI50, SRB assay, 48 hours exposure): 64.6 nM
- CC50 ([9]; Homo sapiens, DU-145, 48 h, read-out: DU-145 LC50, SRB assay, 48 hours exposure): 2330 nM
- DU-145 TGI ([9]; SRB assay, 48 hours exposure): 4.16E−07
- GI50 ([10]; Homo sapiens, HeLa, 48 h, read-out: HELA GI50, SRB assay, 48 hours exposure): 2.52 nM
- HELA TGI ([10]; SRB assay, 48 hours exposure): 5.10E−09
- GI50 ([11]; Homo sapiens, PANC-1, 48 h, read-out: PANC-1 GI50, SRB assay, 48 hours exposure): 220 nM
- CC50 ([11]; Homo sapiens, PANC-1, 48 h): 25200 nM
- PANC-1 TGI ([11]; SRB assay, 48 hours exposure): 2.78E−06
- GI50 ([12]; Homo sapiens, IGROV-1, 48 h, read-out: IGROV GI50, SRB assay, 48 hours exposure): 144 nM
- CC50 ([12]; Homo sapiens, IGROV-1, 48 h): 25200 nM
- IGROV TGI ([12]; SRB assay, 48 hours exposure): 8.76E−07
- GI50 ([13]; Homo sapiens, HT-29, 48 h, read-out: HT-29 GI50, SRB assay, 48 hours exposure): 176 nM
- CC50 ([13]; Homo sapiens, HT-29, 48 h): 25200 nM
- HT-29 TGI ([13]; SRB assay, 48 hours exposure): 1.32E−06
- GI50 ([14]; Homo sapiens, 48 h, read-out: HELA-APL GI50, SRB assay, 48 hours exposure): 4.67 nM
- CC50 ([14]; Homo sapiens, 48 h, read-out: HELA-APL LC50, SRB assay, 48 hours exposure): 29 nM
- HELA-APL TGI ([14]; SRB assay, 48 hours exposure): 6.03E−09

SMILES: CSc1nccc(-c2c3c(O)ccnc3n3c(N)nccc23)n1.Cl [Compound 97]
- GI50 [1]: 1920 nM
- CC50 [1]: 23600 nM
- SK-BR-3 TGI [1]: 7.37E−06
- CC50 ([2]; Homo sapiens, LoVo, 48 h): 27700 nM
- LOVO TGI ([2]; SRB assay, 48 hours exposure): 1.27E−05
- GI50 ([2]; read-out: LOVO GI50, SRB assay, 48 hours exposure): 5070 nM
- CC50 ([3]; Homo sapiens, 48 h): 27700 nM
- IGROV-ET TGI ([3]; SRB assay, 48 hours exposure): 8.12E−06
- GI50 ([3]; read-out: IGROV-ET GI50, SRB assay, 48 hours exposure): 1520 nM
- CC50 ([4]; Homo sapiens, 48 h): 27700 nM
- LOVO-DOX TGI ([4]; SRB assay, 48 hours exposure): 1.93E−05
- GI50 ([4]; read-out: LOVO-DOX GI50, SRB assay, 48 hours exposure): 7510 nM
- CC50 ([5]; Homo sapiens, A549, 48 h): 22300 nM
- A-549 TGI ([5]; SRB assay, 48 hours exposure): 4.55E−06
- GI50 ([5]; read-out: A-549 GI50, SRB assay, 48 hours exposure): 707 nM
- CC50 ([6]; Homo sapiens, K562, 48 h): 24400 nM
- K-562 TGI ([6]; SRB assay, 48 hours exposure): 8.34E−06
- GI50 ([6]; read-out: K-562 GI50, SRB assay, 48 hours exposure): 2850 nM
- LN-caP TGI ([7]; SRB assay, 48 hours exposure): 2.88E−07
- GI50 ([7]; read-out: LN-caP GI50, SRB assay, 48 hours exposure): 109 nM
- CC50 ([7]; read-out: LN-caP LC50, SRB assay, 48 hours exposure): 5820 nM
- CC50 ([8]; Homo sapiens, SK-MEL-28, 48 h): 18000 nM
- MEL-28 TGI ([8]; SRB assay, 48 hours exposure): 7.43E−06
- GI50 ([8]; read-out: MEL-28 GI50, SRB assay, 48 hours exposure): 3080 nM
- DU-145 TGI ([9]; SRB assay, 48 hours exposure): 3.19E−06
- GI50 ([9]; read-out: DU-145 GI50, SRB assay, 48 hours exposure): 257 nM
- CC50 ([9]; read-out: DU-145 LC50, SRB assay, 48 hours exposure): 12800 nM
- HELA TGI ([10]; SRB assay, 48 hours exposure): 1.28E−07
- GI50 ([10]; read-out: HELA GI50, SRB assay, 48 hours exposure): 57.6 nM
- CC50 ([11]; Homo sapiens, PANC-1, 48 h): 24600 nM
- PANC-1 TGI ([11]; SRB assay, 48 hours exposure): 9.98E−06
- GI50 ([11]; read-out: PANC-1 GI50, SRB assay, 48 hours exposure): 4050 nM
- CC50 ([12]; Homo sapiens, IGROV-1, 48 h): 27000 nM
- IGROV TGI ([12]; SRB assay, 48 hours exposure): 3.10E−06
- GI50 ([12]; read-out: IGROV GI50, SRB assay, 48 hours exposure): 93.1 nM
- CC50 ([13]; Homo sapiens, HT-29, 48 h): 18700 nM
- HT-29 TGI ([13]; SRB assay, 48 hours exposure): 4.85E−06
- GI50 ([13]; read-out: HT-29 GI50, SRB assay, 48 hours exposure): 457 nM
- HELA-APL TGI ([14]; SRB assay, 48 hours exposure): 1.77E−07
- GI50 ([14]; read-out: HELA-APL GI50, SRB assay, 48 hours exposure): 78.7 nM
- CC50 ([14]; read-out: HELA-APL LC50, SRB assay, 48 hours exposure): 1850 nM
